Reference: patent publication US20260008818A1, “CYCLIC PEPTIDE OR SALT THEREOF, AND USES THEREOF” (FUJIFILM Corporation, priority 2023, published 2026)
Bridge positions count the residues as written; N and C are the ends. Ends that are not written are not given here. COCH2 = acetyl group that carries the bridge

System: Recombinant Human FGFR1 alpha (IIIc) Fc Chimera Protein
Experiment: Binding affinity of enzymatically synthesized cyclic peptide to FGFR by ELISA
Conditions: luminescence signal at reaction concentration 10 nmol/L, SEQ ID NO: 39 standardized to 1, enzyme synthesis product
Method: The binding affinity of the cyclic peptide to FGFR was evaluated using an ELISA method.
The binding affinity of the enzymatically synthesized cyclic peptide to FGFR was measured by evaluating the amount of the cyclic peptide bound to FGFR by ELISA.
First, 5 ng of Recombinant Human FGFR1 alpha (IIIc) Fc Chimera Protein CF (R&D systems, 658-FR-050) was immobilized in each well of a 96-well plate, and blocked with Pierce Protein-Free (PBS) Blocking Buffer (Thermo, 37572), and a cyclic peptide diluted with Can Get Signal Immunoreaction Enhancer Solution I (TOYOBO, NKB-101) was then added and reacted at room temperature for 3 hours. After washing with 0.05% Tween 20-containing phosphate buffered saline (PBS), an anti-Myc antibody (Cell Signaling, 14038S) diluted with Can Get Signal Immunoreaction Enhancer Solution II (TOYOBO, NKB-101) was added and reacted at room temperature for 2 hours. After washing with 0.05% Tween 20-containing PBS, SuperSignal ELISA Femto Substrate (Thermo, 37075) was added, and the luminescence amount was measured. The dose-response relationship was calculated from using the difference between the luminescence amount in the well in which FGFR was immobilized and the luminescence amount in the well in which FGFR was not immobilized, and the concentration of the cyclic peptide at the time of reaction, and the binding affinity to FGFR was evaluated according to the following evaluation criteria. The evaluation result preferably satisfies the evaluation criteria A, B, or C.
In a case where a value of a luminescence signal emitted by the cyclic peptide set forth in SEQ ID NO: 39 at a reaction concentration of 10 nmol/L is standardized to 1, evaluation criteria of the luminescence signal value emitted by the cyclic peptide at a reaction concentration of 10 nmol/L is as follows. • A: 0.7 or more • B: 0.5 or more and less than 0.7 • C: 0.1 or more and less than 0.5 • D: less than 0.1.

| Substance | Evaluation result of binding affinity to FGFR |
| --- | --- |
| 34 (CRALLRGAPFHLAEC; disulfide 1-15) [compound 34] | D (less than 0.1) |
| 35 (CDRTLLYYRLSC; disulfide 1-12 (inferred)) [compound 35] | D (less than 0.1) |
| 36 (CRALLRGAPFHLAEK(COCH2); thioether 1-15; not fully specified; printed as (C)-RALLRGAPFHLAE-(K(acetyl))) [compound 36] | D (less than 0.1) |
| 37 (CDRTLLYYRLSK(COCH2); thioether 1-12; not fully specified; printed as (C)-DRTLLYYRLS-(K(acetyl))) [compound 37] | D (less than 0.1) |
| 38 (WCQLVWQGHKAPYLTLK(COCH2)L; thioether 2-17) [compound 38] | B (0.5 or more and less than 0.7) |
| 39 (HCSYERLQFHGHEAPFRVKV; also: cyclic peptide, ring not given here) [compound 39] | A (0.7 or more) |
| 40 (QCDVWYWLGHRVPFHPVK(COCH2)V; thioether 2-18 (inferred)) [compound 40] | B (0.5 or more and less than 0.7) |
| 41 (TCFVQLWFVDKPAPFLVK(COCH2)T; thioether 2-18 (inferred)) [compound 41] | B (0.5 or more and less than 0.7) |
| 42 (RCWDQLTFYGHQAPFYVK(COCH2)G; thioether 2-18 (inferred)) [compound 42] | A (0.7 or more) |
| 43 (SCWQQLVWFQFEAPFLVK(COCH2)V; thioether 2-18 (inferred)) [compound 43] | C (0.1 or more and less than 0.5) |
| 44 (FCPHIFLGHNAPFLVQK(COCH2)V; thioether 2-17 (inferred)) [compound 44] | A (0.7 or more) |
| 45 (YCFQKLEFFGHLAPFLFK(COCH2)S; thioether 2-18 (inferred)) [compound 45] | B (0.5 or more and less than 0.7) |
| 46 (ACWVQYLWHGHAAPFLIK(COCH2)S; thioether 2-18 (inferred)) [compound 46] | C (0.1 or more and less than 0.5) |
| 47 (SCWTQLQWQAHLAPFWTK(COCH2)V; thioether 2-18 (inferred)) [compound 47] | C (0.1 or more and less than 0.5) |
| 48 (HCKVQQLWLQGHYAPYWVK(COCH2)S; thioether 2-19 (inferred)) [compound 48] | C (0.1 or more and less than 0.5) |
| 49 (HCEWTQLIYYGFSAPYIVK(COCH2)R; thioether 2-19 (inferred)) [compound 49] | C (0.1 or more and less than 0.5) |
| 50 (WCRLKLLGHDAPFIK(COCH2)W; thioether 2-15 (inferred)) [compound 50] | B (0.5 or more and less than 0.7) |
| 51 (KCWQQLSFVGHIAPFVYK(COCH2)Y; thioether 2-18 (inferred)) [compound 51] | B (0.5 or more and less than 0.7) |
| 52 (SCYERVVLFGWQAPYWAK(COCH2)P; thioether 2-18 (inferred)) [compound 52] | B (0.5 or more and less than 0.7) |
| 53 (SCWYQPEWLGHHLPYLVK(COCH2)W; thioether 2-18 (inferred)) [compound 53] | C (0.1 or more and less than 0.5) |
| 54 (HCYERLQFHGHEAPFRVK(COCH2)V; thioether 2-18 (inferred)) [compound 54] | A (0.7 or more) |
| 55 (HCASYERLQFHGHEAPFRVK(COCH2)V; thioether 2-20 (inferred)) [compound 55] | C (0.1 or more and less than 0.5) |
| 56 (ACSYERLQFHGHEAPFRVK(COCH2)V; thioether 2-19 (inferred)) [compound 56] | A (0.7 or more) |
| 57 (HCAYERLQFHGHEAPFRVK(COCH2)V; thioether 2-19 (inferred)) [compound 57] | A (0.7 or more) |
| 58 (HCSYARLQFHGHEAPFRVK(COCH2)V; thioether 2-19 (inferred)) [compound 58] | B (0.5 or more and less than 0.7) |

| Substance | Evaluation result of binding affinity to FGFR |
| --- | --- |
| 59 (HCSYEALQFHGHEAPFRVK(COCH2)V; thioether 2-19 (inferred)) [compound 59] | C (0.1 or more and less than 0.5) |
| 60 (HCSYERLAFHGHEAPFRVK(COCH2)V; thioether 2-19 (inferred)) [compound 60] | B (0.5 or more and less than 0.7) |
| 61 (HCSYERLQFAGHEAPFRVK(COCH2)V; thioether 2-19 (inferred)) [compound 61] | A (0.7 or more) |
| 62 (HCSYERLQFHGHAAPFRVK(COCH2)V; thioether 2-19 (inferred)) [compound 62] | A (0.7 or more) |
| 63 (HCSYERLQFHGHEAAFRVK(COCH2)V; thioether 2-19 (inferred)) [compound 63] | C (0.1 or more and less than 0.5) |
| 64 (HCSYERLQFHGHEAPFAVK(COCH2)V; thioether 2-19 (inferred)) [compound 64] | B (0.5 or more and less than 0.7) |
| 65 (HCSYERLQFHGHEAPFRAK(COCH2)V; thioether 2-19 (inferred)) [compound 65] | A (0.7 or more) |
| 66 (HCSYERLQFHGHEAPFRVK(COCH2)A; thioether 2-19 (inferred)) [compound 66] | A (0.7 or more) |
| 67 (GCSYERLQFHGHEAPFRVK(COCH2)V; thioether 2-19 (inferred)) [compound 67] | A (0.7 or more) |
| 68 (PCSYERLQFHGHEAPFRVK(COCH2)V; thioether 2-19 (inferred)) [compound 68] | A (0.7 or more) |
| 69 (LCSYERLQFHGHEAPFRVK(COCH2)V; thioether 2-19 (inferred)) [compound 69] | A (0.7 or more) |
| 70 (ICSYERLQFHGHEAPFRVK(COCH2)V; thioether 2-19 (inferred)) [compound 70] | A (0.7 or more) |
| 71 (VCSYERLQFHGHEAPFRVK(COCH2)V; thioether 2-19 (inferred)) [compound 71] | A (0.7 or more) |
| 72 (FCSYERLQFHGHEAPFRVK(COCH2)V; thioether 2-19 (inferred)) [compound 72] | A (0.7 or more) |
| 73 (YCSYERLQFHGHEAPFRVK(COCH2)V; thioether 2-19 (inferred)) [compound 73] | A (0.7 or more) |
| 74 (WCSYERLQFHGHEAPFRVK(COCH2)V; thioether 2-19 (inferred)) [compound 74] | A (0.7 or more) |
| 75 (NCSYERLQFHGHEAPFRVK(COCH2)V; thioether 2-19 (inferred)) [compound 75] | A (0.7 or more) |
| 76 (QCSYERLQFHGHEAPFRVK(COCH2)V; thioether 2-19 (inferred)) [compound 76] | A (0.7 or more) |
| 77 (SCSYERLQFHGHEAPFRVK(COCH2)V; thioether 2-19 (inferred)) [compound 77] | A (0.7 or more) |
| 78 (TCSYERLQFHGHEAPFRVKV; not fully specified; Description of Artificial Sequence: Cyclic peptide) [compound 78] | A (0.7 or more) |
| 79 (DCSYERLQFHGHEAPFRVKV; not fully specified; Description of Artificial Sequence: Cyclic peptide) [compound 79] | A (0.7 or more) |
| 80 (ECSYERLQFHGHEAPFRVKV; not fully specified; Description of Artificial Sequence: Cyclic peptide) [compound 80] | A (0.7 or more) |
| 81 (RCSYERLQFHGHEAPFRVKV; not fully specified; Description of Artificial Sequence: Cyclic peptide) [compound 81] | A (0.7 or more) |
| 82 (HCGYERLQFHGHEAPFRVKV; not fully specified; Description of Artificial Sequence: Cyclic peptide) [compound 82] | A (0.7 or more) |
| 83 (HCPYERLQFHGHEAPFRVKV; not fully specified; Description of Artificial Sequence: Cyclic peptide) [compound 83] | A (0.7 or more) |
